Experimental data from the supplement of paper PMC10627819.

Key:
[1] = tested on: S. pneumoniae D39V; assay: Bliss interaction score (quartile over a dose matrix) (fitness difference); higher = more antagonism (negative = synergy)
Summary of the method: (§1)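 The Bliss score takes observed fitness and subtracts the expected fitness, calculated as a product of single-drug fitness values. Those single-drug values were inferred from the combination data. Fitness is OD595 at entry into stationary phase divided by the plate's robust no-drug mean, capped at 1, and the score is summarised by quartiles across technical, biological and donor/recipient replicates.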

[2] = tested on: S. aureus DSM 20231; assay: as above
Summary of the method: as §1

[3] = tested on: S. aureus Newman; assay: as above
Summary of the method: as §1

[4] = tested on: B. subtilis 168; assay: as above
Summary of the method: as §1

[5] = tested on: S. pneumoniae D39V; assay: fitness (endpoint OD595 vs no drug) (fraction); higher = more growth
Summary of the method: (§2)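 Fitness expresses the optical density reached at the stationary-phase transition as a fraction of the robust mean of no-drug control wells. It is capped at 1. Measurements were OD595 every 30 min for 14 h at 37 °C after inoculation of 384-well plates at OD595 0.01 (30 µl, or 55 µl for S. pneumoniae), minus the first reading.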

[6] = tested on: S. aureus DSM 20231; assay: as above
Summary of the method: as §2

[7] = tested on: S. aureus Newman; assay: as above
Summary of the method: as §2

[8] = tested on: B. subtilis 168; assay: as above
Summary of the method: as §2

[9] = first compound 0.625 µg/mL, partner 0.15 µg/mL
[10] = first compound 0.625 µg/mL, partner 0.3 µg/mL
[11] = first compound 0.625 µg/mL, partner 0.6 µg/mL
[12] = first compound 1.25 µg/mL, partner 0.15 µg/mL
[13] = first compound 1.25 µg/mL, partner 0.3 µg/mL
[14] = first compound 1.25 µg/mL, partner 0.6 µg/mL
[15] = first compound 2.5 µg/mL, partner 0.15 µg/mL
[16] = first compound 2.5 µg/mL, partner 0.3 µg/mL
[17] = first compound 2.5 µg/mL, partner 0.6 µg/mL
[18] = first compound 0.39 µg/mL, partner 1 µg/mL
[19] = first compound 0.39 µg/mL, partner 2 µg/mL
[20] = first compound 0.39 µg/mL, partner 4 µg/mL
[21] = first compound 0.78 µg/mL, partner 1 µg/mL
[22] = first compound 0.78 µg/mL, partner 2 µg/mL
[23] = first compound 0.78 µg/mL, partner 4 µg/mL
[24] = first compound 1.56 µg/mL, partner 1 µg/mL
[25] = first compound 1.56 µg/mL, partner 2 µg/mL
[26] = first compound 1.56 µg/mL, partner 4 µg/mL
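Wherever Bliss interaction score (quartile over a dose matrix) is given: first quartile when negative (synergy) and third quartile when positive (antagonism).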
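Wherever fitness (endpoint OD595 vs no drug) is given: OD595 on entry to stationary phase over no-drug wells; at most 1.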

Compound: Cc1ncc([N+](=O)[O-])n1CCO [Metronidazole] + CN(N=O)C(=O)N[C@@H](C=O)[C@@H](O)[C@H](O)[C@H](O)CO [Streptozotocin]
- Bliss interaction score [1]: 0.0474
- Bliss interaction score [2]: -0.0474
- Bliss interaction score [3]: 0.0626
- Bliss interaction score [4]: -0.0488
- fitness ([5]; first compound 1.073 µg/mL, partner 1.2 µg/mL): 0.942
- fitness ([5]; first compound 1.073 µg/mL, partner 2.4 µg/mL): 0.961
- fitness ([5]; first compound 1.073 µg/mL, partner 4.8 µg/mL): 0.966
- fitness ([5]; first compound 1.25 µg/mL, partner 1.2 µg/mL, one replicate): ≥ 1
- fitness ([5]; first compound 1.25 µg/mL, partner 2.4 µg/mL, one replicate): ≥ 1
- fitness ([5]; first compound 1.25 µg/mL, partner 4.8 µg/mL, one replicate): ≥ 1
- fitness ([5]; first compound 2.145 µg/mL, partner 1.2 µg/mL): 0.934
- fitness ([5]; first compound 2.145 µg/mL, partner 2.4 µg/mL): 0.904
- fitness ([5]; first compound 2.145 µg/mL, partner 4.8 µg/mL): 0.946
- fitness ([5]; first compound 2.5 µg/mL, partner 1.2 µg/mL, one replicate): 0.98
- fitness ([5]; first compound 2.5 µg/mL, partner 2.4 µg/mL, one replicate): ≥ 1
- fitness ([5]; first compound 2.5 µg/mL, partner 4.8 µg/mL, one replicate): ≥ 1
- fitness ([5]; first compound 4.29 µg/mL, partner 1.2 µg/mL): 0.96
- fitness ([5]; first compound 4.29 µg/mL, partner 2.4 µg/mL): 0.743
- fitness ([5]; first compound 4.29 µg/mL, partner 4.8 µg/mL): 0.979
- fitness ([5]; first compound 5 µg/mL, partner 1.2 µg/mL, one replicate): 0.959
- fitness ([5]; first compound 5 µg/mL, partner 2.4 µg/mL, one replicate): ≥ 1
- fitness ([5]; first compound 5 µg/mL, partner 4.8 µg/mL, one replicate): ≥ 1
- fitness [6, 9]: 0.876
- fitness [6, 10]: 0.791
- fitness [6, 11]: 0.683
- fitness [6, 12]: 0.888
- fitness [6, 13]: 0.752
- fitness [6, 14]: 0.701
- fitness [6, 15]: 0.905
- fitness [6, 16]: 0.831
- fitness [6, 17]: 0.734
- fitness [7, 9]: 0.838
- fitness [7, 10]: 0.725
- fitness [7, 11]: 0.579
- fitness ([7]; first compound 0.781 µg/mL, partner 0.15 µg/mL, one replicate): 0.907
- fitness ([7]; first compound 0.781 µg/mL, partner 0.3 µg/mL, one replicate): 0.717
- fitness ([7]; first compound 0.781 µg/mL, partner 0.6 µg/mL, one replicate): 0.523
- fitness [7, 12]: 0.833
- fitness [7, 13]: 0.742
- fitness [7, 14]: 0.568
- fitness ([7]; first compound 1.562 µg/mL, partner 0.15 µg/mL, one replicate): 0.875
- fitness ([7]; first compound 1.562 µg/mL, partner 0.3 µg/mL, one replicate): 0.722
- fitness ([7]; first compound 1.562 µg/mL, partner 0.6 µg/mL, one replicate): 0.519
- fitness [7, 15]: 0.816
- fitness [7, 16]: 0.731
- fitness [7, 17]: 0.591
- fitness ([7]; first compound 3.124 µg/mL, partner 0.15 µg/mL, one replicate): 0.796
- fitness ([7]; first compound 3.124 µg/mL, partner 0.3 µg/mL, one replicate): 0.709
- fitness ([7]; first compound 3.124 µg/mL, partner 0.6 µg/mL, one replicate): 0.505
- fitness ([8]; first compound 0.625 µg/mL, partner 0.15 µg/mL, one replicate): ≥ 1
- fitness ([8]; first compound 0.625 µg/mL, partner 0.3 µg/mL, one replicate): ≥ 1
- fitness ([8]; first compound 0.625 µg/mL, partner 0.6 µg/mL, one replicate): ≥ 1
- fitness ([8]; first compound 1.25 µg/mL, partner 0.15 µg/mL, one replicate): 0.91
- fitness ([8]; first compound 1.25 µg/mL, partner 0.3 µg/mL, one replicate): ≥ 1
- fitness ([8]; first compound 1.25 µg/mL, partner 0.6 µg/mL, one replicate): ≥ 1
- fitness ([8]; first compound 2.5 µg/mL, partner 0.15 µg/mL, one replicate): 0.956
- fitness ([8]; first compound 2.5 µg/mL, partner 0.3 µg/mL, one replicate): 0.941
- fitness ([8]; first compound 2.5 µg/mL, partner 0.6 µg/mL, one replicate): 0.976

Compound: COc1ccc(C[C@H](N)C(=O)N[C@H]2[C@@H](O)[C@H](n3cnc4c(N(C)C)ncnc43)O[C@@H]2CO)cc1 [Puromycin] + Cc1cc(NS(=O)(=O)c2ccc(N)cc2)no1 [Sulfamethoxazol]
- Bliss interaction score [1]: 0.113
- Bliss interaction score [2]: 0.0554
- Bliss interaction score [3]: 0.0386
- Bliss interaction score [4]: 0.0514
- fitness ([5]; first compound 1 µg/mL, partner 1 µg/mL): 0.945
- fitness ([5]; first compound 1 µg/mL, partner 2 µg/mL): 0.934
- fitness ([5]; first compound 1 µg/mL, partner 4 µg/mL): 0.961
- fitness ([5]; first compound 2 µg/mL, partner 1 µg/mL): 0.948
- fitness ([5]; first compound 2 µg/mL, partner 2 µg/mL): 0.927
- fitness ([5]; first compound 2 µg/mL, partner 4 µg/mL): 0.932
- fitness ([5]; first compound 4 µg/mL, partner 1 µg/mL): 0.799
- fitness ([5]; first compound 4 µg/mL, partner 2 µg/mL): 0.807
- fitness ([5]; first compound 4 µg/mL, partner 4 µg/mL): 0.947
- fitness [6, 18]: 0.998
- fitness [6, 19]: 0.996
- fitness [6, 20]: ≥ 1
- fitness [6, 21]: 0.988
- fitness [6, 22]: ≥ 1
- fitness [6, 23]: 0.995
- fitness [6, 24]: 0.952
- fitness [6, 25]: 0.992
- fitness [6, 26]: 0.961
- fitness ([6]; first compound 3.12 µg/mL, partner 1 µg/mL, one replicate): 0.884
- fitness ([6]; first compound 3.12 µg/mL, partner 2 µg/mL, one replicate): 0.864
- fitness ([6]; first compound 3.12 µg/mL, partner 4 µg/mL, one replicate): 0.969
- fitness ([6]; first compound 6.24 µg/mL, partner 1 µg/mL, one replicate): 0.722
- fitness ([6]; first compound 6.24 µg/mL, partner 2 µg/mL, one replicate): 0.706
- fitness ([6]; first compound 6.24 µg/mL, partner 4 µg/mL, one replicate): 0.736
- fitness ([7]; first compound 0.39 µg/mL, partner 8 µg/mL, one replicate): 0.916
- fitness [7, 21]: 0.996
- fitness [7, 22]: 0.943
- fitness [7, 23]: 0.958
- fitness ([7]; first compound 0.78 µg/mL, partner 8 µg/mL, one replicate): 0.931
- fitness [7, 24]: 0.966
- fitness [7, 25]: 0.968
- fitness [7, 26]: ≥ 1
- fitness ([7]; first compound 1.56 µg/mL, partner 8 µg/mL, one replicate): 0.983
- fitness ([8]; first compound 0.39 µg/mL, partner 0.5 µg/mL, one replicate): ≥ 1
- fitness [8, 18]: 0.934
- fitness [8, 19]: 0.947
- fitness [8, 20]: 0.891
- fitness ([8]; first compound 0.78 µg/mL, partner 0.5 µg/mL, one replicate): 0.996
- fitness [8, 21]: 0.921
- fitness [8, 22]: 0.863
- fitness [8, 23]: 0.949
- fitness ([8]; first compound 1.56 µg/mL, partner 0.5 µg/mL, one replicate): 0.992
- fitness [8, 24]: 0.968
- fitness [8, 25]: 0.888
- fitness [8, 26]: 0.941
